What was measured:
Type in all cases: cell-based, human
HT-1080 cells [1] = experiment: Nucleus area by immunofluorescence (DAPI, CellProfiler)
Procedure: HT-1080 (ATCC Cat #CRL-7951, RRID:CVCL_0317), A-673, SK-BR-3, SK-LMS-1 and Huh-7 cells were treated with 1 μM RSL3 for 4 h, 15 μM erastin for 8 h, 10 μM IKE for 8 h, 15 μM FINO2 for 8 h, 10 μM FIN56 for 8 h, 100 μM tBuOOH for 8 h, 1 μM staurosporine (STS) for 6 h, 2 μM camptothecin (CPT) for 24 h, 1 μM RSL3+5 μM Fer-1 for 4 h and 10 μM IKE+5 μM Fer-1 for 8 h on poly-lysine-coated cover slips (Sigma Aldrich P4832) in 24-well plate. Media were taken out and the cells were gently washed with PBS^++ (PBS with 1 mM CaCl2) and 0.5 mM MgCl2) twice. The cells were fixed and permeabilized by adding 200 μL/well of 4% paraformaldehyde (PFA) in PBS with 0.1% Triton X-100 (PBT), and incubated at room temperature for 18 min. The cells were then washed with PBT three times. Then the cells were blocked with 5% goat serum (ThermoFisher 50197Z) in PBT for 1 h at room temperature. The cells were incubated with purified mouse monoclonal antibodies (1:5 dilution), mouse mAb 3F3 FMA (1:500 dilution), Transferrin Receptor/CD71 Monoclonal Antibody, Clone: H68.4, Invitrogen (Thermo Fisher Scientific Cat #13-6800, RRID:AB_2533029, 1:250 dilution), Cd71 (D7G9X) XP® Rabbit mAb (Cell Signaling Technology Cat #13113, RRID:AB_2715594, 1:100 dilution), CD71 (3B8 2A1) (Santa Cruz Biotechnology Cat #sc-32272, RRID:AB_627167, 1:50 dilution), Tom20 (FL-145) (Santa Cruz Biotechnology Cat #sc-11415, RRID:AB_2207533, 1:250 dilution), PDI antibody [RL90]—ER Marker (Abcam Cat #ab2792, RRID:AB_303304, 1:100 dilution), Gm130 (D6B1) XP® Rabbit mAb (Cell Signaling Technology Cat #12480, RRID:AB_2797933, 1:3200 dilution), Anti-Malondialdehyde antibody (Abcam Cat #ab6463, RRID:AB_305484, 1:400 dilution), Anti-4 Hydroxynonenal antibody (Abcam Cat #ab46544, RRID:AB_722493, 1:50 dilution), ACSL4 Antibody (F-4) (Santa Cruz Biotechnology Cat #sc-365230, RRID:AB_10843105, 1:50 dilution), mouse mAb 1F83 (1:100 dilution), which specifically recognizes the malondialdehyde (MDA)-lysine adduct 4-methyl-1,4-dihydropyridine-3,5-dicarbaldehyde (MDHDC) (Yamada et al., 2001), in PBT with 1% BSA and 5% goat serum overnight at 4° C. The cells were washed with PBT for 5 min three times. The cells were incubated with Goat anti-Mouse IgG (H+L) Highly Cross-Adsorbed Secondary Antibody, Alexa Fluor 594 (Thermo Fisher Scientific Cat #A-11032, RRID:AB_2534091, 1:200 dilution) or Goat anti-Rabbit IgG (H+L) Highly Cross-Adsorbed Secondary Antibody, Alexa Fluor 488 (Thermo Fisher Scientific Cat #A-11034, RRID:AB_2576217, 1:200 dilution) at room temperature for 1 h. The cells were washed with PBT for 5 min three times. ProLong Diamond antifade mountant with DAPI (ThermoFisher P36962) was added to stain the nucleus. All images were captured on a Zeiss LSM 800 confocal microscope at Plan-Apochromat 63x/1.40 Oil DIC objective with constant laser intensity for all samples. When applicable, line-scan analysis was performed on representative confocal microscopy images using Zeiss LSM software to qualitatively visualize fluorescence overlap.
The quantification of the intensity of antibodies was analyzed using CellProfiler 3.1.8 (Carpenter et al., 2006) (CellProfiler Image Analysis Software, RRID:SCR_007358). Nuclei were firstly identified as primary objects using global minimum cross entropy strategy. […] Then mean intensities and size areas of nuclei, cytoplasm and plasma membranes were then measured and reported. […]

HT-1080 cells [2] = experiment: Cell death after RSL3 incubation; conditions: 1 μM RSL3, 4 h incubation
HT-1080 cells [3] = experiment: Nucleus area by high-content analysis
Procedure: For the screening with five technical replicates, HT-1080 cells were washed with PBS, trypsinized and resuspended in cell culture medium. The cell suspension (2,000 cells in 50 μl per well) was dispensed into collagen (Sigma-Aldrich, St. Louis, Mass., USA) pre-coated 384-well plates (PerkinElmer 384-well CellCarrierUltra™). 24 h after seeding, medium was exchanged to medium containing 0.3 μM RSL3 (1 mM stock solution) dissolved in 100% dimethyl sulfoxide (DMSO) or DMSO alone. 50 μl medium with 0.3 μM RSL3/DMSO was added per well. The cells were then incubated (37° C.; 5% CO2) for 2.5 h prior to fixation and antibody staining. […] Finally, plates were recorded using the automated Operetta® microscope with the 20× high NA objective for high-resolution images (PerkinElmer, USA). For quantification, three images of each condition were recorded using three channels (Hoechst, Alexa488, TRITC). […] Quantification on cell number, cytoplasmic intensity, nucleus intensity and spot number per cell was performed using the Columbus Software (PerkinElmer, USA).
Multiparametric image analysis was performed using Columbus Software 2.8.0 (PerkinElmer). […] In a next step we have calculated the morphology and Alexa488 fluorescence intensity in each cell region (nucleus and cytoplasm). […] Each spot was detected as a small region within the corresponding image by having a higher intensity than its surrounding area. […]

Structure (SMILES): O=S(=O)(NC1CCCCC1)c1ccc2c(c1)C(=NO)c1cc(S(=O)(=O)NC3CCCCC3)ccc1-2 [FIN56, ferroptosis inducer 56]
- nuclei shrank by (mean nucleus area) (HT-1080 cells [1]; 10 μM FIN56, 8 h incubation): 17%

Structure (SMILES): CC1(CCO)CC2(CCC(C(C)(C)C)CC2)OO1 (centres unmarked) [FINO2, ferroptosis inducer endoperoxide]
- nuclei shrank by (mean nucleus area) (HT-1080 cells [1]; 15 μM FINO2, 8 h incubation): 49%

Structure (SMILES): CC(C)Oc1ccc(C(=O)Cn2ccnc2)cc1-n1c(CN2CCN(C(=O)COc3ccc(Cl)cc3)CC2)nc2ccccc2c1=O [IKE, imidazole ketone erastin]
- nuclei shrank by (mean nucleus area) (HT-1080 cells [1]; 10 μM IKE, 8 h incubation): 12%

Structure (SMILES): COC(=O)c1ccc([C@@H]2c3[nH]c4ccccc4c3C[C@@H](C(=O)OC)N2C(=O)CCl)cc1 [RSL3, (1S, 3R)-RSL3]
- nuclei shrank by (mean nucleus area) (HT-1080 cells [1]; 1 μM RSL3, 4 h incubation): 27%
- HT-1080 cells died (HT-1080 cells [2]): 30%
- decrease of average nucleus area vs DMSO group (HT-1080 cells [3]; RSL3-treated plates 4-6): 17%
- average nucleus area (HT-1080 cells [3]; RSL3-treated plates 4-6 (DMSO group 240 μm^2)): 200 μm^2

Structure (SMILES): CCOc1ccccc1-n1c(C(C)N2CCN(C(=O)COc3ccc(Cl)cc3)CC2)nc2ccccc2c1=O (centres unmarked) [erastin]
- nuclei shrank by (mean nucleus area) (HT-1080 cells [1]; 15 μM erastin, 8 h incubation): 21%

From patent US20220412989A1, “COMPOSITIONS AND METHODS FOR DETECTING CELLS UNDERGOING FERROPTOSIS USING AN ANTIBODY” (THE TRUSTEES OF COLUMBIA UNIVERSITY IN THE CITY OF NEW YORK, priority 2020, published 2022)
